The target of assay [1] is T1, Melanocyte-stimulating hormone receptor (Homo sapiens, UniProt Q01726). The assay can be described thus: Binding affinity to human MC1R.
Assay [2] addresses T1, Melanocyte-stimulating hormone receptor. The experiment in a line: Agonist activity at human MC1R. It counts as functional.
In assay [3] the target is T2, Melanocortin receptor 3 (Homo sapiens, UniProt P41968). The experiment in a line: Binding affinity to human MC3R.
Assay [4] addresses T2, Melanocortin receptor 3. The assay can be described thus: Agonist activity at human MC3R. It counts as functional.
Assay [5] addresses T3, Melanocortin receptor 4 (Homo sapiens, UniProt P32245). The assay can be described thus: Binding affinity to human MC4R.
Assay [6] deals with T3, Melanocortin receptor 4. The experiment in a line: Agonist activity at human MC4R. In kind it is functional.
The target of assay [7] is Melanocortin receptor (M1 and M4) (Homo sapiens) (UniProt P32245+Q01726). The assay can be described thus: Selectivity for human MC4R over MC1R. In kind it is protein assay.
Assay [8] concerns the target Melanocortin receptor (M3 and M4) (Homo sapiens) (UniProt P32245+P41968). The experiment in a line: Selectivity for human MC4R over MC3R. It counts as protein assay.

T1 sequence (Q01726 whole entry): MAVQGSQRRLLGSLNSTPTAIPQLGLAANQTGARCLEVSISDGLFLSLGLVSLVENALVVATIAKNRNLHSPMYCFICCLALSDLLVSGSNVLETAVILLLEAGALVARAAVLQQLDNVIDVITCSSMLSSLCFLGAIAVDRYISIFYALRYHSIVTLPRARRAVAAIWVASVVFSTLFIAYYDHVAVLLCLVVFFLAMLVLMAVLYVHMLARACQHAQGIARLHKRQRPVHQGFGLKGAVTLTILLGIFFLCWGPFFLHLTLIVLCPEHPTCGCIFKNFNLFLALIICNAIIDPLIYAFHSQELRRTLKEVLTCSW
T3 sequence (P32245 whole entry): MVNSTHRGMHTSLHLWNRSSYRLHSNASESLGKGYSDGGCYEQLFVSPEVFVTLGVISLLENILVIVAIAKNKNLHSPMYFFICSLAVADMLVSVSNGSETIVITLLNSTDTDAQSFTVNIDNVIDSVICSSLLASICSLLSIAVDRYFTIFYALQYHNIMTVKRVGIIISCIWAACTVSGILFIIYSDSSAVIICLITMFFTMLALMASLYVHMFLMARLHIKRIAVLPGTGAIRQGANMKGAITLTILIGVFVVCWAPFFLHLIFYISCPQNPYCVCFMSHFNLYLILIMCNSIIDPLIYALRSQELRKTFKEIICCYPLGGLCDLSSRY
T2 sequence (P41968 whole entry): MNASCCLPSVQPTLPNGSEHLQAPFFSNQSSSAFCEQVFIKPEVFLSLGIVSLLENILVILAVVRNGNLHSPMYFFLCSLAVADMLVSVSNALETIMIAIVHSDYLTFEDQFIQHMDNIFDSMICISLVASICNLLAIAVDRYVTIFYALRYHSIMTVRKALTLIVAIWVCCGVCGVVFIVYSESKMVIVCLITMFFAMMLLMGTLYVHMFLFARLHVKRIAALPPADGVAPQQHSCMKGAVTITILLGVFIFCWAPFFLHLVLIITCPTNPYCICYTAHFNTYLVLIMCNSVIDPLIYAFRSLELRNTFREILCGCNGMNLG

By Ki is commonly meant a measure of affinity in units of concentration, obtained from inhibition or displacement. A low value points to tighter binding. A word on the EC50: it is the concentration at which the effect is half-maximal. For the compound `CNC(=O)[C@H](Cc1ccc2ccccc2c1)N1CCN(C(=O)[C@@H](Cc2ccccc2)NC(=O)[C@H](Cc2ccc(O)cc2)NC(C)=O)[C@@H](CCCN=C(N)N)C1=O`, the Ki in assay [1] is 1 nM; on Melanocortin receptor 3 [3] it was 1 nM; on Melanocortin receptor 4 [5], 0.6 nM. Also, the EC50 in assay [2] came out at 1.7 nM; on Melanocortin receptor 3 [4] it was 1 nM; on Melanocortin receptor 4 [6], 0.2 nM.
In the case of `CNC(=O)[C@H](Cc1ccc2ccccc2c1)N1CCN(C(=O)[C@@H](Cc2ccc(F)cc2)NC(=O)[C@H](Cc2ccc(O)cc2)NC(C)=O)[C@@H](CCCN=C(N)N)C1=O`, the values for the Ki (in assay [1]; at Melanocortin receptor 3 [3]; on Melanocortin receptor 4 [5]) were 14 nM, 1.1 nM and 0.4 nM, respectively. Also, the EC50 was found to be 30 nM in assay [2], 2 nM on Melanocortin receptor 3 [4] and 8.7 nM at Melanocortin receptor 4 [6].
For the compound `CNC(=O)[C@H](Cc1ccc2ccccc2c1)N1CCN(C(=O)[C@@H](Cc2ccccc2)NC(=O)[C@H](Cc2c[nH]cn2)NC(C)=O)[C@@H](CCCN=C(N)N)C1=O`, the Ki in assay [1] was 0.4 nM; at Melanocortin receptor 3 [3], 1 nM; on Melanocortin receptor 4 [5], 0.8 nM. The EC50 in assay [2] came out at 0.07 nM; on Melanocortin receptor 3 [4] it was 0.4 nM; at Melanocortin receptor 4 [6] it was 0.3 nM.
Turning to `CNC(=O)[C@H](Cc1ccc2ccccc2c1)NC(=O)[C@H](CCCN=C(N)N)NC(=O)[C@H](N)Cc1ccc(F)cc1`, the Ki is 4060 nM in assay [1], 1140 nM on Melanocortin receptor 3 [3] and 225 nM at Melanocortin receptor 4 [5]. Besides, the values for the EC50 (in assay [2]; at Melanocortin receptor 3 [4]; at Melanocortin receptor 4 [6]) were 21700 nM, 20000 nM and 140 nM, respectively.
For `CNC(=O)[C@H](Cc1ccc2ccccc2c1)N1CCN(C(=O)[C@H](N)Cc2ccc(F)cc2)[C@@H](CCNC(N)=O)C1=O`, the Ki amounted to 21700 nM in assay [1], 6110 nM on Melanocortin receptor 3 [3] and 365 nM at Melanocortin receptor 4 [5]. Moreover, at Melanocortin receptor 4 [6], the response was half-maximal at 18 nM (EC50).
In the case of `CNC(=O)[C@H](Cc1ccc2ccccc2c1)N1CCN(C(=O)[C@H](N)Cc2ccc(F)cc2)[C@@H](CCCN=C(N)N)C1=O`, the Ki in assay [1] was determined as 366 nM; at Melanocortin receptor 3 [3] it was 75 nM; at Melanocortin receptor 4 [5], 7 nM. Moreover, the EC50 in assay [2] was 317 nM; at Melanocortin receptor 3 [4] it was 37 nM; at Melanocortin receptor 4 [6] it was 1.6 nM.
For the compound `CNC(=O)[C@H](Cc1ccc2ccccc2c1)N1CCN(C(=O)[C@H](N)Cc2ccccc2)[C@@H](CCCN=C(N)N)C1=O`, the Ki in assay [1] was found to be 659 nM; at Melanocortin receptor 3 [3], 239 nM; at Melanocortin receptor 4 [5], 5.7 nM. Further, the EC50 in assay [2] was 526 nM; on Melanocortin receptor 3 [4], 41 nM; on Melanocortin receptor 4 [6] it was 1.7 nM. Besides, the Selectivity ratio in assay [7] turned out to be 116; in assay [8], 42.
Regarding `CNC(=O)[C@H](Cc1ccc2ccccc2c1)N1CCN(C(=O)[C@H](N)Cc2ccc(F)cc2)[C@@H](CCCNC(N)=O)C1=O`, the figures for the Ki (in assay [1]; on Melanocortin receptor 3 [3]; on Melanocortin receptor 4 [5]) were 2130 nM, 461 nM and 261 nM, respectively. The EC50 on Melanocortin receptor 4 [6] worked out at 12 nM.
In the case of `CNC(=O)[C@H](Cc1ccc2ccccc2c1)N1CCN(C(=O)[C@@H](Cc2ccc(F)cc2)NC(=O)[C@H](Cc2cnc[nH]2)NC(C)=O)[C@@H](CCCN=C(N)N)C1=O`, the Ki in assay [1] turned out to be 2 nM; at Melanocortin receptor 3 [3], 35 nM; at Melanocortin receptor 4 [5], 5 nM. Also, the results for the EC50 (in assay [2]; at Melanocortin receptor 3 [4]; at Melanocortin receptor 4 [6]) were 1.7 nM, 6 nM and 2 nM, respectively.
As to `CNC(=O)[C@H](Cc1ccc2ccccc2c1)N1CCN(C(=O)CCc2ccc(F)cc2)[C@@H](CCCN=C(N)N)C1=O`, the Ki amounted to 958 nM in assay [1], 206 nM on Melanocortin receptor 3 [3] and 5.3 nM at Melanocortin receptor 4 [5]. The EC50 in assay [2] was found to be 1390 nM; at Melanocortin receptor 3 [4], 142 nM; at Melanocortin receptor 4 [6], 9 nM.
On to `CNC(=O)[C@H](Cc1ccc2ccccc2c1)N1CCN(C(=O)[C@@H](Cc2ccc(F)cc2)NC(C)=O)[C@@H](CCCN=C(N)N)C1=O`, for which the Ki stood at 18 nM in assay [1], 7 nM on Melanocortin receptor 3 [3] and 1.3 nM on Melanocortin receptor 4 [5]. In addition, the EC50 in assay [2] is 2.3 nM; at Melanocortin receptor 3 [4], 10 nM; at Melanocortin receptor 4 [6], 0.5 nM.
With `CNC(=O)[C@H](Cc1ccc2ccccc2c1)N1CCN(C(=O)[C@@H](Cc2ccc(F)cc2)NC(=O)[C@H](CCC(N)=O)NC(C)=O)[C@@H](CCCN=C(N)N)C1=O`, the results for the Ki (in assay [1]; on Melanocortin receptor 3 [3]; on Melanocortin receptor 4 [5]) were 2 nM, 3.3 nM and 1.1 nM, respectively. Also, the EC50 was found to be 0.37 nM in assay [2], 0.5 nM on Melanocortin receptor 3 [4] and 0.34 nM on Melanocortin receptor 4 [6].
Turning to `CNC(=O)[C@H](Cc1ccc2ccccc2c1)N1CCN(C(=O)[C@@H](Cc2ccc(F)cc2)NC(=O)C2Cc3ccccc3CN2)[C@@H](CCCN=C(N)N)C1=O` (stereo partly specified), the Ki in assay [1] was found to be 313 nM; on Melanocortin receptor 3 [3] it was 352 nM; on Melanocortin receptor 4 [5] it was 6 nM. Moreover, the EC50 was 104 nM in assay [2], 163 nM on Melanocortin receptor 3 [4] and 1.6 nM at Melanocortin receptor 4 [6].
